Data on three compounds can be found in US12234211B2, “Cycloolefin substituted heteroaromatic compounds and their use” (HUTCHISON MEDIPHARMA LIMITED, priority 2017, dated 2025).

Converted amounts (≈) assume the structure as drawn. Read-outs that look alike come from different tables or passages of the source.

Data set [1] in a line: Metabolic stability test in liver microsomes (mouse). In kind it is in vitro ADME. The following applies: percentage of remaining compound after incubation for 30 minutes vs 0 minute; 1 μM compound; 0.5 mg/mL liver microsomes; 37° C. The protocol:
(§1) Male CD1 mouse liver microsomes was supplied by Research Institute for Liver Diseases (Shanghai) Co., Ltd. Male SD rat liver microsomes was supplied by BioreclamationIVT in US.
(§2) Phenacetin, glucose-6-phosphate (G-6-P), glucose-6-phosphate dehydrogenase (G-6-PD), and nicotinamide adenine dinucleotide phosphate (NADP) were supplied by Sigma-Aldrich (Missouri, USA).
(§3) 10 mM stock solution of test compound: Certain amount of test compound was weighed and dissolved in certain volume of dimethylsulfoxide (DMSO) to get the stock solution of test compound at 10 mM.
(§4) Reaction termination solution: Certain amount of phenacetin as internal standard was weighed and dissolved in acetonitrile to get the reaction termination solution at 1000 ng/mL, and stored at room temperature for use.
(§5) The stock solution of test compound was diluted to the designated concentration with organic solution (usually the mixtures of acetonitrile, methanol and water with different portions depending on the compound solution) to make the final concentration to be 1 μM and the contents of organic solvents no more than 1% (For DMSO, the controlled margin was 0.1%) in the final incubation system. 100 mM NADP, 500 mM G-6-P and 100 U/mL G-6-PDH were mixed and diluted with ultrapure water to provide the NADPH regenerating system containing 1 mM NADP, 5 mM G-6-P and 1 U/mL G-6-PD, which was pre-incubated at 37° C. water-bath for 10 min and then cooled on ice until being added into the reaction system. 20 mg/mL liver microsomes was mixed with 200 mM PBS and diluted with ultrapure water to make the concentrations of liver microsomes and PBS to be 0.5 mg/mL and 50 mM in the final incubation system, respectively. After the diluted liver microsomes was mixed with the NADPH regenerating solution, certain volumes of 100 mM EDTA and 300 mM MgCl2 (concentration of EDTA and MgCl2 in the final incubation system is 1 mM and 3 mM, respectively) were added, and the incubation system was put into 37° C. water bath. The incubation was commenced by adding the stock solution of test compound and maintained for 30 min. The incubation was terminated by adding the reaction termination solution. The 0 min sample was prepared by adding the reaction termination solution to the incubation system immediately prior to putting the system into the water bath with the addition of the stock solution of test compound. The terminated incubation mixtures were vortexed and centrifuged at 4400 rpm for 10 min, and the supernatant was collected for LC-MS/MS analysis.
(§6) The concentration of test compound was determined using LC-MS/MS method. Using the peak area ratio of the compound and the internal standard as an index, the percentage of remaining compound after incubation for 30 minutes as compared with the 0 minute sample was calculated, and the metabolic stability of the compound was evaluated.
(Microsomes from liver hold many membrane-bound enzymes, among them those of drug oxidation.)

A short description of data set [2]: Determination of solubility in sodium phosphate buffers. In kind it is physicochemical. The following applies: for solubility at 1 h: aqueous buffer, thermodynamic from solid. As to the method: • Sample standard solution: About 3-5 mg test compound was accurately weighed and added into a 5 mL sample tube, 5 mL DMSO was added. Shaking and sonicating for 1 hour. • pH 2.1 sample solution: About 1 mg test compound was accurately weighed and added into a 1 mL sample tube, 1 mL pH 2.1 sodium phosphate buffer was added. Shaking. Adding test compound to the solution, if the solution is visually clear, till there is obvious insoluble in the solution. Sonicating for 1 hour. • pH 7.4 sample solution: About 1 mg test compound was accurately weighed and added into a 1 mL sample tube, 1 mL pH 7.4 sodium phosphate buffer was added. Shaking. Adding test compound to the solution, if the solution is visually clear, till there is obvious insoluble in the solution. Sonicating for 1 hour. 2. Determination • 1 mL sample standard solution was accurately pipetted into a HPLC tube. The peak area was determined by HPLC. • 0.5 mL pH 2.1 sample solution was filtered by syringe filter and was accurately pipetted into a HPLC tube, and 0.5 mL pH 2.1 sodium phosphate buffer was accurately added. Shaking. The peak area was determined by HPLC. • 0.5 mL pH 7.4 sample solution was filtered by syringe filter and was accurately pipetted into a HPLC tube, and 0.5 mL pH 7.4 sodium phosphate buffer was accurately added. Shaking. The peak area was determined by HPLC. • HPLC condition: • Instrument: Agilent 1200 • Column: Agilent SB-C18 5 u 4.6*150 mm • Mobile phase: • Phase A: Water (containing 0.1% formic acid) • Phase B: MeOH (containing 0.1% formic acid)

A further data set has as its target T1, IDH2-R140Q (Homo sapiens, UniProt P48735, R140Q).
T1 construct: expressed in transfected cells
T1 sequence (P48735 40-452 R140Q): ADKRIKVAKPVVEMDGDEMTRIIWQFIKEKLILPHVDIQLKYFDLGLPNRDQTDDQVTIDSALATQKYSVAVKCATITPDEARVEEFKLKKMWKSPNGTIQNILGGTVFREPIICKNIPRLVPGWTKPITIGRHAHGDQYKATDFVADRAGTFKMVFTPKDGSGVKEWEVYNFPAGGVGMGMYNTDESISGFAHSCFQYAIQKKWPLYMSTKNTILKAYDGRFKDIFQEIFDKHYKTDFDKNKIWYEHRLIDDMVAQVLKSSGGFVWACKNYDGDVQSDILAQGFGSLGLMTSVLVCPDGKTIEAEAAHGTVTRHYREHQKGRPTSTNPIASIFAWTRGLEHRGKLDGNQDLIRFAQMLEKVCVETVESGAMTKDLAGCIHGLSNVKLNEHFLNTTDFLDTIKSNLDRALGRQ
As to the kind of experiment: Fluorescent determination of IDH2-R140Q cell activity (2-HG in U87MGR140Q cells). The data set is classed as cell-based. The following applies: 72 hours incubation, read-out: IC50 (2-HG inhibition).

The next data set deals with T2, IDH1-R132H (Homo sapiens, UniProt O75874, R132H).
T2 construct: expressed in transfected cells; host or cells: U87MG cells (U87MGR132H)
T2 sequence (O75874 whole entry R132H): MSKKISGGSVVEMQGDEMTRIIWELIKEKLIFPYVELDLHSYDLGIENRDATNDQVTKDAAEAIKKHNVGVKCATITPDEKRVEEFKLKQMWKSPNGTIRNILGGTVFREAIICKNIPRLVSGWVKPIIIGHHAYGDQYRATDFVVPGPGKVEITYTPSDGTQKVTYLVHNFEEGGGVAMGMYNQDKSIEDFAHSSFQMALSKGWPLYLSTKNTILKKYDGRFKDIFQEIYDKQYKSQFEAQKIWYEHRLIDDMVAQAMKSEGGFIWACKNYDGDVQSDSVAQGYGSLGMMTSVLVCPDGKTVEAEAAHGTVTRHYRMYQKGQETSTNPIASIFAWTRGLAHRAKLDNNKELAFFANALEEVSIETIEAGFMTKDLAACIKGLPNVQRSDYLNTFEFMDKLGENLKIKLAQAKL
In words: Fluorescent determination of IDH1-R132H cell activity (2-HG in U87MGR132H cells). The following applies: 2-HG inhibition in U87MGR132H cells transfected with IDH1-R132H mutant plasmid. In kind it is cell-based.

Data set [3] in a line: Metabolic stability test in liver microsomes (rat). In kind it is in vitro ADME. The following applies: percentage of remaining compound after incubation for 30 minutes vs 0 minute; 1 μM compound; 0.5 mg/mL liver microsomes; 37° C. The protocol:
as §1, §2, §3, §4, §5, §6

The next data set deals with mutant IDH1. The following applies: patients with AML or MDS having IDH1 mutations; cited from earlier work.

Broadly, the solubility is the concentration that dissolves in the medium under given conditions. Usually IC50 stands for the concentration at which inhibition is half-maximal.

For `C[C@@H](Nc1nc(N[C@H](C)C(F)(F)F)nc(C2=C(F)C(O)C(F)CC2)n1)C(F)(F)F` (single isomer, unassigned) [Compound 97], in data set [1], the “Mouse liver microsome stability” value was 89.5%. Moreover, the solubility at 1 h worked out at 77 µg/mL (≈ 177 µM) in data set [2] (pH 2.1 sodium phosphate buffer, read-out: Solubility pH 2.1) and 21 µg/mL (≈ 48.2 µM) in data set [2] (pH 7.4 sodium phosphate buffer, read-out: Solubility pH 7.4). The IC50 on IDH2-R140Q turned out to be 0.052 µM; against IDH1-R132H, 0.047 µM. Moreover, the “Rat liver microsome stability” value in data set [3] turned out to be 98.5%.
In the case of `[2H]C1([2H])CCC(c2nc(N[C@H](C)C(F)(F)F)nc(N[C@H](C)C(F)(F)F)n2)=C(F)C1O` (stereo partly drawn) [Compound 82, (*)3-(4,6-Bis(((R)-1,1,1-trifluoropropan-2-yl)amino)-1,3,5-triazin-2-yl)-2-fluorocyclohex-2-en-6,6-D2-1-ol], the “Mouse liver microsome stability” value in data set [1] is 93.1%. In addition, in data set [2] (pH 2.1 sodium phosphate buffer), the “Solubility pH 2.1” value is 0.146 mg/mL. Moreover, the “Solubility pH 7.4” value in data set [2] (pH 7.4 sodium phosphate buffer) came out at 0.037 mg/mL. In addition, in data set [3], the “Rat liver microsome stability” value was 92.9%.
Turning to `N#Cc1ccnc(N2C(=O)CC[C@H]2C(=O)N(c2cncc(F)c2)[C@H](C(=O)NC2CC(F)(F)C2)c2ccccc2Cl)c1` [AG-120], the “patients with decreased levels of α-hydroxyglutaric acid (2HG)” value with mutant IDH1 is 98%.
